Data taken from US20050137247A1, “Methods and compositions for treatment of hypertension” (The Brigham and Women's Hospital, Inc., priority 2003, published 2005).
Several values for one entry are separate records, joined by “and”; a condition that tells them apart may be missing. Identical values can stand only once. Entries after “also recorded” stand apart in the source; their conditions may differ.

What was measured:
Format in all cases: in vivo, human
[1] = test system: male patients with untreated, uncomplicated, essential hypertension; experiment: 24-hour rhythm analysis of ambulatory blood pressure (peaked and skewed cosine fit)
Excerpt: Statistics. Because not all variables were normally distributed (Shapiro's-Wilk's W Test), non-parametric tests were used as required. Consequently, Altman's crossover analysis methods were applied (Altman, D. G., Crossover trials, Practical statistics for medical research, Vol. 1, Chapman and Hall. London, 1991, pp. 467-471). […] Student's t-tests for independent variables or Mann-Whitney U tests were applied for all dependent variables to test a carryover effect for (1) single treatment periods, and (2) repeated treatment periods. Correlation between a change in sleep quality and a change in sleep blood pressure was tested by linear correlation. The 24-hour rhythm in blood pressure was fitted by standard cyclic regression models: cosine, cosine with second harmonic, skewed cosine, peaked cosine, and skewed and peaked cosine analysis (Batschelet, E., Circular Statistics in Biology, Academic Press, 1981, 371 pp.). Of these, the latter best fitted the data as indicated by the Akaike's Information Criterion (AIC) (de Leeuw, J., introduction to Akaike (1973) Information Theory and an Extension of the Maximum Likelihood Principle. In S. Kotz and N. L. Johnson (Eds.), Breakthroughs in statistics, Vol. 1, Springer-Verlag. London, 1992 pp. 599-609) and was used for subsequent analysis. Two-tailed p values lower than 0.05 were considered to indicate statistical significance. All group data are presented as means±standard deviation (SD) or means including 95% confidence interval (95% CI).
24-Hour rhythm analysis of ambulatory blood pressure. For 24-hour rhythm analysis of ambulatory blood pressure, the peaked and skewed cosine analysis was used. […] The decrease in minimum and mean systolic blood pressure was not significant (−6±15 mm Hg; p=0. 13 and −5±12 mm Hg; p=0. 19).

[2] = test system: male patients with untreated, uncomplicated, essential hypertension; experiment: Actigraphic estimates of sleep quality (Actiwatch)
Method: (§1) Measurements. […] Ambulatory blood pressure was measured every half hour for 32 hours, from 8 hours before bedtime until bedtime the next day. In addition, noninvasive finger arterial blood pressure recordings were performed by Finometer (TNO Biomedical Instruments, Amsterdam, The Netherlands) (Bos, W. J., et al., Circulation, 94 (1996) 1870-5), to estimate changes in total peripheral resistance, stroke volume, and cardiac output, as possible explanations for changes in blood pressure. […] During all ambulatory blood pressure recordings, the subjects reported sleep details in a sleep-wake diary and wore an Actiwatch (Cambridge Neurotechnology Ltd, Cambridge, UK), a piezo-electric accelerometer, on the non-dominant wrist to assess motor activity at 1 min intervals for the estimation of sleep quality.
(§2) Data analysis. Sleep blood pressure was defined as the mean blood pressure from the time of falling asleep until the time of awakening, as determined by actigraphy. Awake blood pressure was defined as the mean blood pressure during the remaining portion of the day. Continuous Finometer data were analyzed by Beatscope software (TNO-Biomedical Instruments, Amsterdam, The Netherlands) (Bos, W. J., et al., Circulation, 94 (1996) 1870-5). Periods of 5 min with a stable blood pressure signal were used for both supine and standing periods. To accurately determine the sleeping period and estimate sleep quality, automatic sleep/wake scoring was performed with Actiwatch Sleep Analysis 98 (Cambridge Neurotechnology Ltd, V4.15), with sensitivity set to medium, on the actigraphy data between “bed time” and “get up time” derived from the sleep-wake diaries. Three sleep variables were objectively computed by this analysis. ‘Sleep latency’ was the calculated time between bed time and sleep onset. The time asleep was termed actual sleep time. The percentage of time asleep while in bed was defined as ‘sleep efficiency’.

[3] = test system: male patients with untreated, uncomplicated, essential hypertension; experiment: Finger arterial blood pressure recordings by Finometer; conditions: repeated melatonin; supine resting or standing, daytime
Method: as §1, §2

[4] = test system: male patients with untreated, uncomplicated, essential hypertension; experiment: 24-hour ambulatory blood pressure and heart rate, randomized double-blind placebo-controlled crossover trial
Excerpt: Patients. Sixteen male patients with untreated, uncomplicated, essential hypertension were included in the study. Women were excluded to prevent possible interference of the menstrual cycle and oral anticonceptives on cardiovascular and circadian regulation. Patients were considered hypertensive, with a daytime ambulatory blood pressure between 140-179 mm Hg systolic or between 90-109 mm Hg diastolic. Secondary hypertension was excluded by medical history and routine laboratory tests. Five patients had never received antihypertensive medication; in the others antihypertensive treatment was stopped at least three weeks before participation. Their mean (±SD) age was 55±8 (range 36-68) years and mean BMI was 26.8±.1.7 (23.3-29.1) kg/m^2. Mean self reported habitual waking and bedtimes were 06:38 a.m. ±55 minutes and 11:29 p.m. ±26 minutes, respectively. […] Five days before and during ambulatory blood pressure measurements, subjects maintained fixed sleep-wake cycles according to their habitual sleep-wake cycle. All procedures were carried out with adequate understanding and written consent of the subjects and were approved by the Ethics Committee of the Academic Medical Center of the University of Amsterdam.
Study Design. […] On assessment days, patients abstained from heavy physical exercise, daytime napping, alcohol and nicotine consumption and coffee was restricted to two consumptions per day during breakfast or lunch. Meal times were restricted to the following periods: breakfast 1 to 1.5 hours after waking; lunch 11 to 10 hours before bedtime; and dinner 5 to 4 hours before bedtime.
as §1, §2
Statistics. Because not all variables were normally distributed (Shapiro's-Wilk's W Test), non-parametric tests were used as required. Consequently, Altman's crossover analysis methods were applied (Altman, D. G., Crossover trials, Practical statistics for medical research, Vol. 1, Chapman and Hall. London, 1991, pp. 467-471). […]

[5] = 3 weeks melatonin vs 3 weeks placebo
[6] = 3 weeks melatonin vs 3 weeks placebo, not significant
[7] = repeated melatonin vs placebo, no effect
[8] = acute (single) melatonin 2.5 mg vs single placebo
[9] = after 3 weeks melatonin 2.5 mg orally 1 hour before bedtime, mean ± SD
[10] = individual patient 14, relative to placebo level (FIG. 2)

## COc1ccc2[nH]cc(CCNC(C)=O)c2c1 [Melatonin, N-acetyl-5-methoxy-tryptamine]
[1]; [5]
  decrease of calculated mean diastolic blood pressure: 4±6 mm Hg
  decrease of calculated minimum diastolic blood pressure: 5±7 mm Hg
  increase of day-night rhythm amplitude of diastolic blood pressure: 25%
  increase of day-night rhythm amplitude of systolic blood pressure: 15%
[1]; [6]
  change in mean systolic blood pressure: −5±12 mm Hg
  change in minimum systolic blood pressure: −6±15 mm Hg
[1]; repeated melatonin vs placebo
  effect on time of the minimum blood pressure: no effects
[1]; [7]
  change in maximum diastolic blood pressure: −1±5 mm Hg
  change in maximum systolic blood pressure: −2±12 mm Hg
[2]; acute melatonin application
  effect on actual sleep time: no significant effect
  effect on sleep latency: no significant effect
[2]; after repeated melatonin (placebo 33 minutes)
  sleep latency: 22 min
[2]; after repeated melatonin (placebo 5.6 hours)
  actual sleep time: 6.1 h
[3]
  effect on blood pressure (Finometer): no elect
  effect on cardiac output (Finometer): no elect
  effect on heart rate (Finometer): no elect
  effect on stroke volume (Finometer): no elect
  effect on total peripheral resistance (Finometer): no elect
[4]; [6]
  change in awake diastolic blood pressure: −1 mm Hg
  change in awake systolic blood pressure: −5 mm Hg
[4]; [8]
  effect on diastolic blood pressure awake: no effect
  effect on diastolic blood pressure whilst asleep: no effect
  effect on systolic blood pressure awake: no effect
  effect on systolic blood pressure whilst asleep: no effect
[4]; [9]
  Sleeping Period Distolic BP: 82.4 ± 4.0
  Sleeping Period Heart Rate: 61.1 ± 6.5
  Sleeping Period Systolic BP: 130.6 ± 10.0
  Waking Period Distolic BP: 95.4 ± 7.7
  Waking Period Heart Rate: 71.2 ± 7.8
  Waking Period Systolic BP: 147.6 ± 12.3
[4]; [10]
  effect of repeated melatonin on waking diastolic blood pressure, patient 14: −27 mm Hg
  effect of repeated melatonin on waking systolic blood pressure, patient 14: −53 mm Hg
[4]; repeated (3 weeks daily) 2.5 mg melatonin 1 hour before bedtime vs 3 weeks placebo
  reduction of sleep diastolic blood pressure: 4±6 mm Hg and 4 mm Hg
[4]; repeated (3 weeks daily) 2.5 mg melatonin vs placebo
  effect on heart rate: without a change; also recorded: did not affect
[4]; single dose of melatonin 2.5 mg
  effect on blood pressure: no effect
